In the CheMixHub ionic liquid set:

Experiment: xn = mol fraction of the nth substance listed

CC[n+]1ccn(C)c1.N#C[S-] + CC[n+]1ccn(C)c1.CS(=O)(=O)[O-] + O
100 kPa, x1 = 1, x2 = 0
Details	viscosity [mPa·s]
298.15 K	23.91
323.15 K	11.7

CC(=O)O.CC(=O)[O-].CC[NH+](CC)CCO + CCCC[n+]1ccn(C)c1.COP(=O)([O-])OC
101 kPa
Details	viscosity [mPa·s]
278.15 K, x1 = 0.3316	453
278.15 K, x1 = 0.5275	335
283.15 K, x1 = 0.7493	220
288.15 K, x1 = 0.5275	168.3
293.15 K, x1 = 0.0748	568
293.15 K, x1 = 0.7493	116.3
298.15 K, x1 = 0.5275	93.7
298.15 K, x1 = 0.6343	91.1
298.15 K, x1 = 0.8567	76.9
303.15 K, x1 = 0.0748	283.6
303.15 K, x1 = 1	59.6
308.15 K, x1 = 0.3316	74.6
308.15 K, x1 = 0.7493	53.4
313.15 K, x1 = 0.5275	44.19
313.15 K, x1 = 0.6343	42.6
318.15 K, x1 = 0.8567	27.56
323.15 K, x1 = 0.5275	30.28
323.15 K, x1 = 0.6343	29.17
323.15 K, x1 = 0.8567	22.27
328.15 K, x1 = 0.0748	73.3
328.15 K, x1 = 0.4263	27.4
328.15 K, x1 = 0.7493	23.34
333.15 K, x1 = 0.6343	18.02
333.15 K, x1 = 0.7493	17.41
338.15 K, x1 = 0.0748	47.83
343.15 K, x1 = 0.7493	13.68
348.15 K, x1 = 0.6343	12.02
348.15 K, x1 = 1	8.93
358.15 K, x1 = 0.5275	9.3
358.15 K, x1 = 0.8567	6.94
358.15 K, x1 = 1	6.65
363.15 K, x1 = 1	5.8
368.15 K, x1 = 0.5275	7.03
368.15 K, x1 = 0.6343	6.64

CC1CCC(=O)O1 (centres undefined) + CCCC[n+]1ccn(C)c1.O=S(=O)([N-]S(=O)(=O)C(F)(F)F)C(F)(F)F
electrical conductivity [S/m], 100 kPa, frequency 0.01 MHz
Details	293.15 K	298.15 K	303.15 K	308.15 K	313.15 K	318.15 K	323.15 K
x2 = 0.0505	0.666	0.719	0.785	0.849	0.914	0.986	1.05
x2 = 0.1001	1.01	1.11	1.21	1.31	1.42	1.54	1.67
x2 = 0.1492	1.11	1.21	1.32	1.45	1.58	1.73	1.87
x2 = 0.1998	1.1	1.21	1.34	1.48	1.62	1.77	1.92
x2 = 0.3008	0.993	1.1	1.22	1.36	1.5	1.64	1.79
x2 = 0.4031	0.816	0.913	1.02	1.13	1.25	1.38	1.51
x2 = 0.5048	0.677	0.762	0.854	0.96	1.07	1.19	1.31
x2 = 0.6031	0.561	0.636	0.72	0.818	0.918	1.03	1.16
x2 = 0.6973	0.476	0.544	0.623	0.712	0.81	0.918	1.03
x2 = 0.7994	0.394	0.457	0.531	0.612	0.703	0.807	0.919
x2 = 0.8711	0.364	0.425	0.498	0.575	0.663	0.763	0.869

Cc1ccccc1 + CCCCCCCC[n+]1ccc2ccccc2c1.O=S(=O)([N-]S(=O)(=O)C(F)(F)F)C(F)(F)F
Details	viscosity [mPa·s]
308.15 K, 101 kPa, x1 = 1	0.5

CCCCCCCCn1cc[n+](C)c1.[Cl-] + CCCCCCCCn1cc[n+](C)c1.F[B-](F)(F)F
101 kPa, x1 = 1
Details	electrical conductivity [S/m]	viscosity [mPa·s]
303 K	0.00213	–
308 K	0.00353	–
313 K	0.00562	–
318 K	0.00861	–
328.15 K	–	1367

OCCN(CCO)CCO + CCOS(=O)(=O)[O-].CC[n+]1ccn(C)c1
100 kPa
Details	electrical conductivity [S/m]	viscosity [mPa·s]
293.15 K, x1 = 0.153	–	126.2
293.15 K, x1 = 0.617	–	159.3
293.15 K, x1 = 0.967	–	714
298.15 K, x1 = 0.787	0.0457	202.4
298.15 K, x1 = 0.929	0.0087	395
298.15 K, x1 = 0.967	0.00372	478
298.15 K, x2 = 0.003	0.000422	–
298.15 K, x2 = 0.006	0.00076	–
298.15 K, x2 = 0.019	0.00206	–
303.15 K, x1 = 0.617	–	89
303.15 K, x1 = 0.866	–	203.4
303.15 K, x1 = 0.929	–	274.8
303.15 K, x1 = 0.967	–	328
303.15 K, x2 = 0.006	–	389
313.15 K, x1 = 0.153	0.66	50.4
313.15 K, x2 = 0.003	0.00117	–
313.15 K, x2 = 0.006	0.00211	–

CCCCCCCCCCCCCCCC[N+](C)(C)C.[Br-] + O=C(CO)[C@@H](O)[C@H](O)[C@@H](O)CO + O
viscosity [mPa·s], 100 kPa
Details	298.15 K	308.15 K	318.15 K
x1 = 7.21e-06, x2 = 0	0.896	0.742	0.617
x1 = 1.442e-05, x2 = 0	0.898	0.744	0.617
x1 = 2.162e-05, x2 = 0	0.9	0.745	0.617

CCCCCCCCCCCCCCCC[N+](C)(C)C.[Br-] + OC[C@@H](O)[C@H](O)[C@@H](O)CO + O
viscosity [mPa·s], 100 kPa
Details	298.15 K	308.15 K	318.15 K
x1 = 7.19e-06, x2 = 0.002032	0.942	0.778	0.646
x1 = 7.19e-06, x2 = 0.002472	0.952	0.785	0.652
x1 = 7.19e-06, x2 = 0.002816	0.96	0.791	0.657
x1 = 7.2e-06, x2 = 0.0009831	0.918	0.759	0.631
x1 = 7.2e-06, x2 = 0.001215	0.923	0.763	0.634
x1 = 7.2e-06, x2 = 0.00156	0.931	0.769	0.639
x1 = 7.21e-06, x2 = 0	0.896	0.742	0.617
x1 = 1.437e-05, x2 = 0.002971	0.97	0.801	0.664
x1 = 1.438e-05, x2 = 0.002331	0.955	0.789	0.654
x1 = 1.439e-05, x2 = 0.001497	0.935	0.772	0.641
x1 = 1.439e-05, x2 = 0.002025	0.947	0.783	0.649
x1 = 1.44e-05, x2 = 0.0008555	0.919	0.76	0.631
x1 = 1.44e-05, x2 = 0.001291	0.929	0.768	0.638
x1 = 1.442e-05, x2 = 0	0.898	0.744	0.617
x1 = 2.156e-05, x2 = 0.002894	0.973	0.804	0.666
x1 = 2.157e-05, x2 = 0.002365	0.96	0.793	0.657
x1 = 2.158e-05, x2 = 0.002035	0.951	0.786	0.651
x1 = 2.159e-05, x2 = 0.001618	0.941	0.778	0.644
x1 = 2.16e-05, x2 = 0.0009365	0.924	0.764	0.633
x1 = 2.16e-05, x2 = 0.001242	0.931	0.77	0.638
x1 = 2.162e-05, x2 = 0	0.9	0.745	0.617

CCCC[P+](CCCC)(CCCC)CCCC.[O-]c1cccnc1 + O=C=O
Details	viscosity [mPa·s]
293 K, 101 kPa, x2 = 0.5098	90000

CCCC(=O)O + CC(CC(C)(C)C)CP(=O)([O-])CC(C)CC(C)(C)C.CCCCCCCCCCCCCC[P+](CCCCCC)(CCCCCC)CCCCCC
Details	viscosity [mPa·s]
298 K, 100 kPa, x2 = 0.9022	950
